Calls of active or inactive are those of the source. The rule behind the calls is not given here. Square brackets hold non-standard residues; d marks the D form. Peptide text beside a SMILES is read from it. 1Nal = N[C@@H](Cc1cccc2ccccc12)C(=O)O; 2Nal = N[C@@H](Cc1ccc2ccccc2c1)C(=O)O; pS = N[C@@H](COP(=O)(O)O)C(=O)O

Format in all cases: cell-based
Series [1] is filed under the species Rattus norvegicus. The series is described as follows: Antagonist activity at FPR1 in rat RBL-2H3/ETFR cells assessed as inhibition of fMLF-induced cell migration at 10 nM after 6 hrs by RTCA relative to fMLF.
The species named for series [2] is Rattus norvegicus. The series is described as follows: Inhibition of FITC-fMLF induced FPR1 internalization in rat RBL-2H3/ETFR cells at 10 uM preincubated for 30 mins followed by agonist addition measured after 30 mins by fluorescence assay.
Series [3] can be described thus: Induction of cell migration in rat RBL2H3/ETFR cells stably expressing FPR1 at 10 nM after 6 hrs by RTCA. Particulars: 0.01 µM.
The subject of a further series is RBL-2H3. Briefly: Induction of cell migration in rat RBL2H3 cells at 10 nM after 6 hrs by RTCA. The conditions noted are these: rbl-2h3, 6 h, 0.01 µM.
For series [4], the species on record is Rattus norvegicus. The series is described as follows: Inhibition of FITC-fMLF induced FPR1 internalization in rat RBL-2H3/ETFR cells at 10 uM preincubated for 30 mins followed by agonist addition measured after 30 mins by confocal fluorescent microscopy.
Series [5] is described as follows: (§1) Antagonist activity at FPR1 in rat RBL-2H3/ETFR cells assessed as inhibition of fMLF-induced cell migration after 4 hrs by RTCA relative to fMLF.
Series [6] is filed under the species Rattus norvegicus. Described as §1.
Where [7] appears, read: Rattus norvegicus, RBL-2H3, 4 h, read-out: IC50.

As usually defined, the inhibition is the drop in the measured response relative to a control, in per cent. Take `N=C(N)NCCC[C@H](NC(=O)[C@H](Cc1ccc(O)cc1)NC(=O)[C@H](COP(=O)(O)O)NC(=O)[C@H](CO)NC(=O)[C@@H](N)CCCNC(=N)N)C(N)=O` (H-RS[pS]YR-NH2): the inhibition in the series filed under Rattus norvegicus [1] was 0%. Also, the inhibition entry in the series filed under Rattus norvegicus [2] and in the series filed under Rattus norvegicus [4] was “inactive” in each case. Besides, the Activity entry (in series [3]; with RBL-2H3) was “Non-Toxic” throughout.
A word on the IC50: it is the concentration needed to halve the response being measured. Regarding `N=C(N)NCCC[C@H](NC(=O)[C@H](COP(=O)(O)O)NC(=O)[C@H](CCCNC(=N)N)NC(=O)[C@@H](N)CO)C(=O)N[C@@H](Cc1ccc(O)cc1)C(N)=O` (H-SR[pS]RY-NH2), the inhibition in the series listed under Rattus norvegicus [1] and in the series filed under Rattus norvegicus [2] was 67% throughout. Besides, the figures for the IC50 result in series [5] and in series [5] (setting [7]) were “Dose-dependent effect” and 0.1 pM, respectively. The Activity result (in series [3]; in the series with RBL-2H3) was “Non-Toxic” in each case. Besides, the inhibition entry in the series filed under Rattus norvegicus [4] was “Active”.
With `N=C(N)NCCC[C@H](NC(=O)[C@H](CO)NC(=O)[C@H](CCCNC(=N)N)NC(=O)[C@@H](N)COP(=O)(O)O)C(=O)N[C@@H](Cc1ccc(O)cc1)C(N)=O` (H-[pS]RSRY-NH2), the inhibition in the series filed under Rattus norvegicus [1] turned out to be 58%. Also, the Activity entry (in series [3]; with RBL-2H3) was “Non-Toxic” each time.
With `N=C(N)NCCC[C@@H]1NC(=O)[C@H](CCC(=O)O)NC(=O)[C@H](CCCNC(=N)N)NC(=O)[C@H](Cc2ccc(O)cc2)NC(=O)[C@H](CCC(=O)O)NC1=O` (cyclo(EREYR)), the inhibition in the series filed under Rattus norvegicus [1] and in the series listed under Rattus norvegicus [2] was 61% in each case. Further, the Activity result (in series [3]; in the series on RBL-2H3) was “Non-Toxic” each time.
Consider `N=C(N)NCCC[C@@H]1NC(=O)[C@H](CCC(=O)O)NC(=O)[C@H](CCCNC(=N)N)NC(=O)[C@H](Cc2ccccc2)NC(=O)[C@H](CO)NC1=O` (cyclo(ERSFR)), for which, in the series filed under Rattus norvegicus [1], the inhibition is 20%. The inhibition result in the series listed under Rattus norvegicus [2] is “Active”. Moreover, the Activity result (in series [3]; in the series with RBL-2H3) was “Non-Toxic” each time.
As for `N=C(N)NCCC[C@@H]1NC(=O)[C@H](CCC(=O)O)NC(=O)[C@H](CCCNC(=N)N)NC(=O)[C@H](Cc2c[nH]c3ccccc23)NC(=O)[C@H](CO)NC1=O` (cyclo(ERSWR)), in the series listed under Rattus norvegicus [1], the inhibition was 0%. Further, the inhibition entry in the series listed under Rattus norvegicus [2] is “inactive”. The Activity entry (in series [3]; in the series with RBL-2H3) was “Non-Toxic” throughout.
For `N=C(N)NCCC[C@@H]1NC(=O)[C@H](CCC(=O)O)NC(=O)[C@H](CCCNC(=N)N)NC(=O)[C@H](Cc2ccc(O)cc2)NC(=O)[C@H](CO)NC1=O` (cyclo(ERSYR)), the inhibition in the series listed under Rattus norvegicus [1] came out at 49%; in the series filed under Rattus norvegicus [2] it was 55%. Moreover, the Activity entry (in series [3]; with RBL-2H3) was “Non-Toxic” throughout.
`N=C(N)NCCC[C@@H]1NC(=O)[C@H](CO)NC(=O)[C@H](CCCNC(=N)N)NC(=O)[C@H](Cc2ccc(O)cc2)NC(=O)[C@H](CCC(=O)O)NC1=O` (cyclo(EYRSR)): the inhibition in the series listed under Rattus norvegicus [1] was 34%. For the same compound, the Activity result (in series [3]; in the series on RBL-2H3) was “Non-Toxic” throughout.
With `N=C(N)NCCC[C@@H]1NC(=O)[C@H](CO)NC(=O)[C@H](CO)NC(=O)[C@H](Cc2ccc(O)cc2)NC(=O)[C@H](CCCNC(=N)N)NC1=O` (cyclo(RRYSS)), the inhibition in the series filed under Rattus norvegicus [1] was found to be 0%. For the same compound, the inhibition result in the series filed under Rattus norvegicus [2] and in the series listed under Rattus norvegicus [4] was “inactive” each time. The Activity entry (in series [3]; in the series on RBL-2H3) was “Non-Toxic” in each case.
In the case of `N=C(N)NCCC[C@@H]1NC(=O)[C@H](CO)NC(=O)[C@H](CCCNC(=N)N)NC(=O)[C@H](Cc2ccc(O)cc2)NC(=O)[C@H](CO)NC1=O` (cyclo(RSRSY)), the results for the inhibition in the series listed under Rattus norvegicus [1] and in the series listed under Rattus norvegicus [6] were 75% and “Dose-dependent effect”, respectively. The IC50 in series [5] (setting [7]) worked out at 0.1 pM. The inhibition entry in the series listed under Rattus norvegicus [2] and in the series listed under Rattus norvegicus [4] was “Active” in each case. For the same compound, the Activity result (in series [3]; with RBL-2H3) was “Non-Toxic” throughout.
`N=C(N)NCCC[C@@H]1NC(=O)[C@H](CO)NC(=O)[C@H](CCCNC(=N)N)NC(=O)[C@H](Cc2ccc(O)cc2)NC(=O)[C@H](COP(=O)(O)O)NC1=O` (cyclo(RSR[pS]Y)): in the series filed under Rattus norvegicus [1], the inhibition was determined as 31%. For the same compound, the Activity result (in series [3]; with RBL-2H3) was “Non-Toxic” in each case.
For `N=C(N)NCCC[C@@H]1NC(=O)[C@H](COP(=O)(O)O)NC(=O)[C@H](CCCNC(=N)N)NC(=O)[C@H](Cc2ccc(O)cc2)NC(=O)[C@H](CO)NC1=O` (cyclo(RSYR[pS])), the inhibition in the series listed under Rattus norvegicus [1] came out at 36%. For the same compound, the Activity entry (in series [3]; with RBL-2H3) was “Non-Toxic” throughout.
With `N=C(N)NCCC[C@@H]1NC(=O)[C@H](CCC(=O)O)NC(=O)[C@H](CCCNC(=N)N)NC(=O)[C@H](Cc2cccc3ccccc23)NC(=O)[C@H](CO)NC1=O` (cyclo([1Nal]RERS)), the inhibition in the series filed under Rattus norvegicus [1] came to 43%; in the series listed under Rattus norvegicus [2], 62%. Also, the Activity result (in series [3]; with RBL-2H3) was “Non-Toxic” throughout.
Take `N=C(N)NCCC[C@@H]1NC(=O)[C@H](CCC(=O)O)NC(=O)[C@H](CCCNC(=N)N)NC(=O)[C@H](Cc2ccc3ccccc3c2)NC(=O)[C@H](CO)NC1=O` (cyclo([2Nal]RERS)): the inhibition in the series listed under Rattus norvegicus [1] is 23%. In addition, the inhibition entry in the series filed under Rattus norvegicus [2] is “Active”. Further, the Activity entry (in series [3]; in the series with RBL-2H3) was “Non-Toxic” in each case.
`CSCC[C@H](NC=O)C(=O)N[C@@H](CC(C)C)C(=O)N[C@@H](Cc1ccccc1)C(=O)O` [N-FORMYLMETHIONYL-LEUCYLPHENYLALANINE]: the inhibition entry in the series listed under Rattus norvegicus [2] and in the series listed under Rattus norvegicus [4] was “Active” in each case. The Activity entry in series [3] is listed as “Toxic”.
As to H-SRSRY-NH2, the inhibition result in the series listed under Rattus norvegicus [2] was “Active”.
